Patent US20210076677A1, “NOVEL PESTICIDAL COMBINATIONS” (priority 2017, published 2021)

Key:
[1] = system: Helicoverpa armigera in tomato; assay: Field trial, fruit borer control in tomato (Colby synergy); format: in vivo; conditions: 10 days after application, Mancozeb + Azoxystrobin 1750 g/ha, Chlorantriniprole 150 g/ha
Procedure: Studies were conducted to compare the efficacy of the combination of amide insecticides with fungicides selected from the various classes and to compare their observed efficacy with the ‘expected_ efficacy when amide insecticides and fungicides were used to treat fungal and insect pests. Any difference between the observed and ‘expected_ efficacy could be attributed to synergy between the two compounds in the control of fungal and insect pests. The expected efficacy of a combination of amide insecticides with fungicides was calculated using the well-established Colby method.
In the Colby method, the expected (or predicted) response of a combination of actives is calculated by taking the product of the observed response for each individual component of the combination when applied alone divided by 100 and subtracting this value from the sum of the observed response for each component when applied alone. An unexpected enhancement in efficacy of the combination is then determined by comparing the observed response of the combination to the expected (or predicted) response as calculated from the observed response of each individual component alone. If the observed response of the combination is greater than the expected (or predicted) response, or stated conversely, if the difference between the observed and expected response is greater than zero, then the combination is said to be synergistic or unexpectedly effective. (Colby, S. R., Weeds, 1967(15), p. 20-22) The Colby method requires only a single dose of each active applied alone and the mixture of both doses. […]
The efficacy of the individual actives of the invention and their combinations were evaluated on various fungal and insect pests. […]
Further field trials were carried out to test the synergy of the combination amide […] chlorantriniprole in combination with fungicides for the control of Helicoverpa armigera in tomato. […] The percentage efficacy was calculated after 10 days of applications and the results are recorded in the table below: […]

[2] = system: Alternaria solani in tomato; assay: Field trial, early blight control in tomato (Colby synergy); format: in vivo; conditions: 10 days after application, Mancozeb + Azoxystrobin 1750 g/ha, Chlorantriniprole 150 g/ha
Procedure: Studies were conducted to compare the efficacy of the combination of amide insecticides with fungicides selected from the various classes and to compare their observed efficacy with the ‘expected_ efficacy when amide insecticides and fungicides were used to treat fungal and insect pests. Any difference between the observed and ‘expected_ efficacy could be attributed to synergy between the two compounds in the control of fungal and insect pests. The expected efficacy of a combination of amide insecticides with fungicides was calculated using the well-established Colby method. […] An unexpected enhancement in efficacy of the combination is then determined by comparing the observed response of the combination to the expected (or predicted) response as calculated from the observed response of each individual component alone. If the observed response of the combination is greater than the expected (or predicted) response, or stated conversely, if the difference between the observed and expected response is greater than zero, then the combination is said to be synergistic or unexpectedly effective. (Colby, S. R., Weeds, 1967(15), p. 20-22) The Colby method requires only a single dose of each active applied alone and the mixture of both doses. The formula used to calculate the expected efficacy (EE) which was compared with the observed efficacy (OE) to determine the efficacy of the present invention is explained hereinbelow: […] The efficacy of the individual actives of the invention and their combinations were evaluated on various fungal and insect pests. The trial was carried out in Randomized Complete Block (RCB) method, all field trials were conducted using this method. Each trial was replicated three times and conducted under GEP guidelines. Application volumes were varied for each mixture. Such field trials were carried out at various locations so as to generate independent data, the locations were chosen randomly across India. […]

Compound: CNC(=O)c1cc(Cl)cc(C)c1NC(=O)c1cc(Br)nn1-c1ncccc1Cl [Chlorantriniprole, chlorantraniliprole]
- % control of pest, Fruit Borer control in tomato 10DAA, Actual ([1]; first trial (columns c2/c3)): 75.8%
- % control of pest, Fruit Borer control in tomato 10DAA, Actual ([1]; second trial (columns c4/c5)): 86.4%
- % control of pest, Fruit Borer control in tomato 10DAA, Actual ([1]; third trial (columns c6/c7)): 88.4%
- % Disease control, Early Blight Control in tomato 10DAA, Actual ([2]; first trial (columns c2/c3)): 1.91%
- % Disease control, Early Blight Control in tomato 10DAA, Actual ([2]; second trial (columns c4/c5)): 1.86%
- % Disease control, Early Blight Control in tomato 10DAA, Actual ([2]; third trial (columns c6/c7)): 2.70%
